Measured values as given in patent US10849994B2, “Pharmaceutical composition comprising fluorine-18 labelled gases” (ASOCIACIÓN CENTRO DE INVESTIGACIÓN COOPERATIVA EN …, priority 2016, dated 2020).

Test: PET-CT ventilation imaging after inhalation of the radioactive gas
Assay type: in vivo, rat (Sprague-Dawley)
Conditions: male rats
Experimental: Imaging studies were conducted with [^18F]CF4.
Male rats (n=2) weighing 350±14 g (Sprague-Dawley, Harlan, Udine, Italy) were used to perform PET studies. The animals were cared for and handled in accordance with the Guidelines for Accommodation and Care of Animals (European Convention for the Protection of Vertebrate Animals Used for Experimental and Other Scientific Purposes) and internal guidelines, and experimental procedures were approved by the Ethical Committee and local authorities.
The radioactive gas was administered by inhalation, by mixing the mixture [^18F]CF4/CF4/Ne obtained at the end of the production process (process A) with the oxygen carrier gas. With that aim, the system depicted in FIG. 3 was implemented.
PET studies were performed using an eXploreVista-CT small animal PET-CT system (GE Healthcare).
Step 1: Rats were anesthetized in an induction chamber using a mixture of 3-4% isoflurane in O2.
Step 2: Animals were rapidly moved into the PET-CT camera, were anaesthesia was maintained with a mixture of 1.5-2.0% isofluorane in O2. During the stay into the PET-CT camera, animals were kept normothermic using a heating blanket (Homeothermic Blanket Control Unit; Bruker). Regular breathing (frequency of 50±10 breaths/minute) was maintained by adjustment of anaesthetic conditions. Respiration and body temperature of the animals were monitored throughout the scan.
Step 3: At t=0 min, with the animal under anaesthesia, acquisition of PET images was started in list mode.
Step 4: At t=1 minute, the syringe pump was started and the radioactive gas ([^18F]CF4, diluted with Neon and non-radioactive CF4, 74 MBq, 2 mCi) was introduced in the main stream of oxygen and consequently administered to the animal.
Step 5: At t=2 minutes, the syringe pump was stopped, and image acquisition was continued until t=10 minutes.
Step 6: After finalising the PET image acquisition, a whole body CT scan was performed, providing anatomical information as well as the attenuation map, for the later image reconstruction.
Images were reconstructed (decay and CT-based attenuation corrected) with OSEM-2D. Twenty nine frames (3×20s, 10×10s, 4×20s and 12×30s) were defined to gain information about the spatiotemporal distribution of the radioactivity. PET images were analysed using PMOD image analysis software (PMOD Technologies Ltd, Zurich, Switzerland). Volumes of interest (VOIs) were manually drawn in the lungs on the CT images. VOIs were then transferred to the PET images and the concentration of radioactivity was obtained for each organ and time frame as cps/cm^3. All frames were finally summed and re-processed to get more accurate images of the distribution of radioactivity within the lungs.

With FC(F)(F)[18F] [[^18F]CF4, ^18F-labelled carbon tetrafluoride] the “distribution of the radioactive gas in the lungs (summed PET-CT images, FIG. 8)” value (n=2, 74 MBq in O2/isoflurane, delivered t=1-2 min, all frames summed) was “uniform distribution of the radioactive gas in the lungs”, the “elimination of the radioactivity from the lungs after delivery of the radioactive gas is discontinued” value (n=2, after the syringe pump was stopped at t=2 min) was “almost complete elimination of the radioactivity is achieved in a few seconds” and the “time-activity curve of a VOI drawn in the whole lungs: plateau (FIG. 9)” value (n=2, during gas delivery) was “reached immediately after the onset of contrast agent administration”. The “distribution of the radioactive gas in the lungs (dynamic images)” value (n=2, dynamic PET frames) was “immediate distribution of the radioactive gas in the lungs”.
